Assay results from patent US8980906B2, “Pyridonemorphinan analogs and biological activity on opioid receptors” (Purdue Pharma L.P., priority 2012, dated 2015).

Assays:
κ-opioid receptor [1] = biological target: T1, κ-opioid receptor (Homo sapiens (Human), UniProt P41145); assay: κ-opioid receptor [35S]GTPγS functional assay, HEK-293 or CHO cells; assay type: biochemical; details: for Emax: relative to U69,593, HEK-293 or CHO cells
δ-opioid receptor = δ-opioid receptor (Homo sapiens (Human), UniProt P41143); assay: δ-opioid receptor radioligand dose-displacement binding assay ([3H]-Naltrindole); details: binding affinity, [3H]-Naltrindole displacement
Chain of δ-opioid receptor (P41143 whole entry, looked up): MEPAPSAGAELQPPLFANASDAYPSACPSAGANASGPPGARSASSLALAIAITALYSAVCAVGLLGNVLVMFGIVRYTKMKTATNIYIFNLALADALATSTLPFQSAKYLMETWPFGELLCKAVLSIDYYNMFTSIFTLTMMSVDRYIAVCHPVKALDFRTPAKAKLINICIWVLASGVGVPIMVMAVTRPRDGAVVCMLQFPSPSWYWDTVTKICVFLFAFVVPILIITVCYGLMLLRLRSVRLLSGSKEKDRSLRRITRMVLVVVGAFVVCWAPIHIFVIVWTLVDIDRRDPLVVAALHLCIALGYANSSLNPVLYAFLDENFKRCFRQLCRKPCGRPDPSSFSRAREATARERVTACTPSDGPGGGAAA
Procedure: δ-Opioid Receptor Binding Assay Procedures: δ-Opioid Receptor Binding Assay Procedures were conducted as follows. Radioligand dose-displacement assays used 0.2 nM [^3H]-Naltrindole (Perkin Elmer, Shelton, Conn.; 33.0 Ci/mmole) with 5 μg membrane protein (Perkin Elmer, Shelton, Conn.) in a final volume of 500 μl binding buffer (5 mM MgCl2, 5% DMSO, 50 mM Trizma base, pH 7.4). Non-specific binding was determined in the presence of 25 μM unlabeled naloxone. All reactions were performed in 96-deep well polypropylene plates for 1 hour at a temperature of about 25° C. Binding reactions were terminated by rapid filtration onto 96-well Unifilter GF/C filter plates (Perkin Elmer, Shelton, Conn.) presoaked in 0.5% polyethylenimine (Sigma). Harvesting was performed using a 96-well tissue harvester (Perkin Elmer, Shelton, Conn.) followed by five filtration washes with 500 μl ice-cold binding buffer. Filter plates were subsequently dried at 50° C. for 1-2 hours. Fifty μl/well scintillation cocktail (Perkin Elmer, Shelton, Conn.) was added and plates were counted in a Packard Top-Count for 1 min/well.

κ-opioid receptor [2] = biological target: T1, κ-opioid receptor; assay: κ-opioid receptor radioligand dose-displacement binding assay ([3H]-U69,593); details: binding affinity, [3H]-U69,593 displacement
Summary of the method: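 Competition binding with 0.4 nM [3H]-U69,593 and 15 μg membrane protein from HEK 293 cells expressing recombinant human κ receptor, in 50 mM Tris pH 7.4 with 5% DMSO, 1 h at about 25 °C. Nonspecific binding defined with 10 μM naloxone or U69,593; bound ligand collected by GF/C filtration and scintillation counting.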

μ-opioid receptor = μ-opioid receptor (Homo sapiens (Human), UniProt P35372); assay: μ-opioid receptor radioligand dose-displacement binding assay ([3H]-diprenorphine); details: binding affinity, [3H]-diprenorphine displacement; read-out: Ki (nM) Opioid Receptor μ

Structure (SMILES) | EC50 (κ-opioid receptor [1]) [nM] | Emax (κ-opioid receptor [1]) [%] | Ki (δ-opioid receptor) [nM] | Ki (κ-opioid receptor [2]) [nM] | Ki (μ-opioid receptor) [nM]
NC(=O)c1cc2c([nH]c1=O)C[C@]13CCN(CC4CC4)[C@H](Cc4ccc(O)cc41)[C@]3(O)C2 [Compound 5, (6R,6aS,12aR)-15-(cyclopropylmethyl)-2,6a-dihydroxy-10-oxo-6,6a,7,10,11,12-hexahydro-5H-6,12a-(epiminoethano)naphtho[2,1-g]quinoline-9-carboxamide] | 4.37 ± 1.11 | 10.2 ± 1.18 | 26.4 ± 7.23 | 0.58 ± 0.15 | 6.55 ± 2.06
O=C(O)c1cc2c([nH]c1=O)C[C@]13CCN(CC4CC4)[C@H](Cc4ccc(O)cc41)[C@]3(O)C2 [Compound 9, (6R,6aS,12aR)-15-(cyclopropylmethyl)-2,6a-dihydroxy-10-oxo-6,6a,7,10,11,12-hexahydro-5H-6,12a-(epiminoethano)naphtho[2,1-g]quinoline-9-carboxylic acid] | > 20000 | 2.33 ± 1.33 | 18.5 ± 2.14 | 1.52 ± 0.18 | 3.11 ± 0.9
O=C(O)c1cc2c([nH]c1=O)C[C@]13CCN(CC4CC4)[C@H](Cc4ccc(O)cc41)[C@@H]3C2 [Compound 11, (6R,6aR,12aS)-15-(cyclopropylmethyl)-2-hydroxy-10-oxo-6,6a,7,10,11,12-hexahydro-5H-6,12a-(epiminoethano)naphtho[2,1-g]quinoline-9-carboxylic acid] | 1.4 ± 0.56 | 19 ± 1.53 | – | 18.5 ± 7.73 | 0.52 ± 0.12
